Reference: PMC2898662, “Midkine inhibitors: application of a simple assay procedure to screening of inhibitory compounds” (International Archives of Medicine, 2010)
Ends that are not written are not given here. Peptide text beside a SMILES is read from it.

Legend:
midkine [1] = biological target: T1, midkine (Homo sapiens, UniProt P21741); test: Binding activity to midkine by surface plasmon assay (BIACORE 3000); conditions: BIACORE 3000, midkine immobilised on CM5 chip; peptides 5 μg/ml in 10 mM HEPES-NaOH pH 7.4, 0.15 M NaCl, 0.0005% Tween 20; 25°C; read-out: Binding constant to midkine
T1 construct: made in house; host or cells: yeast
T1 sequence (P21741 23-143 limits assumed): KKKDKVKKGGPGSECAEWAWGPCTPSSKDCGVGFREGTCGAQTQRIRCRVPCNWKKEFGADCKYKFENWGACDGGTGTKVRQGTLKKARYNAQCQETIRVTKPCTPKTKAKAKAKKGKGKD
Experimental: Binding activity to midkine was evaluated in the BIACORE 3000 System (GE Healthcare, UK Ltd). A CM5 sensor chip coated with carboxymethyldextran was activated by injecting a solution (1:1) of 200 mM N-ethyl-N'-(3-dimethylaminopropyl) carbodiimide hydrochloride and 100 mM N-hydroxysuccinimide at a flow rate of 10 μl/min. A 70 μl aliquot of midkine solution (50 μg/ml in 10 mM acetate buffer, pH 5.0) was injected for immobilization. The remaining activated N-hydroxysuccinimide ester groups were blocked by injecting 1 M ethanolamine hydrochloride/NaOH, pH 8.5, and washed with 10 μl of 1 M NaCl. Peptides (5 μg/ml) in the running buffer (10 mM HEPES-NaOH, pH 7.4, containing 0.15 M NaCl and 0.0005% Tween 20) were injected into the flow cell, and the change in resonance units was recorded. Binding assays were performed at 25°C with a constant flow rate of […] in both association and dissociation phases.

midkine [2] = biological target: T1, midkine; test: Midkine activity: midkine-dependent migration of UMR106 cells (Chemotaxicell); type: cell-based; conditions: filter coated with 20 μg/ml midkine, 4 h, OD 590 nm
Experimental: Midkine activity was determined by promotion of migration of UMR106 (ATTC No. 1661) cells. Chemotaxicell (pore size 8 micron, Kurabo Industries Ltd., Japan) was coated with 20 μg/ml of midkine at the lower surface of the filter for 1 h, and washed with Dulbecco's phosphate-buffered saline (PBS) twice. UMR106 cells (2 × 10^5 cells in 0.2 ml of Dulbecco's modified Eagle's medium with 0.3% bovine serum albumin) were added to the upper chamber. The lower chamber contained 0.5 ml of the same medium. Cells were cultured for 4 h. The inner Chemotaxicell was cleaned with PBS, and cells were fixed with 100% methanol at room temperature for 20 min. The inner cell was cleaned with cotton bar, and the migrated cells were stained with 1% crystal violet at room temperature for 30 min., and were washed with H2O. The cells were extracted with 0.2 ml of 1% SDS with 1% Triton X-100 for 1 h upon agitation. Then extract of 0.15 ml was transferred to a 96 well plate and OD 590 nm was determined. Upon inhibition assay using low molecular weight compounds, they were dissolved in ethanol and were added to the lower chamber so that the final ethanol concentration was 2%. The control contained also 2% ethanol in this occasion. Inhibition assay using peptides was performed by adding them dissolved in H2O. Assay was done in duplicate.

UMR106 cells = test: Toxicity to UMR106 target cells in culture
Description: These 10 compounds were surveyed for the activity to inhibit midkine activity.

[3] = peptide 1 mg/ml in lower chamber, dissolved in H2O, control without material = 100, duplicate
[4] = peptide added to culture of UMR106 cells at 1 mg/ml

Row | Compound | Kd (midkine [1]) [nM] | Migration activity (%) (midkine [2]; [3]) | also measured
1 | PAKLRNPCT [PA9] | 450 | 69.4 ± 46.1 | 
2 | AMETNLV [AM7] | 950 | 99.5 ± 6.9 | 
3 | CC1CCCC(C)N1c1nc(-c2cccs2)cc(C(F)(F)F)n1 (stereo not shown) [Compound I, 2-(2,6-dimethylpiperidin-1-yl)-4-thiophen-2-yl-6-(trifluoromethy)pyrimidine] |  |  | Migration activity (%) (midkine [2]; compound 0.146 mg/ml in lower chamber, 2% ethanol, control = 100, duplicate): 43.8 ± 10.2%; Toxicity to the target cells (UMR106 cells; at the concentration used for the migration assay (Compound I 0.146 mg/ml, Compound II 0.10 mg/ml)): no toxicity
4 | TFSQRIEG [TF8] | 140 | 105 ± 24 | 
5 | GTGTKVRQGTL [GT11, midkine-derived peptide … from β-sheet of C-terminal half] |  | 156 ± 6 | 
6 | IENPRGSKDIKKNKN [IE15] | 300 | 113 ± 10.1 | 
7 | MQSTIRE [MQ7] | 230 | 107 ± 2 | 
8 | KQNQVKFGS [KQ9] | 200 | 107 ± 15 | 
9 | YKFENWGACDGG [YK12] |  | 44.0 ± 10.5 | Inhibition of cell-substratum adhesion of UMR106 cells (UMR106 cells; [4]): inhibition of cell-substratum adhesion was observed in a certain occasion; Toxicity to UMR106 cells (UMR106 cells; [4]): no toxicity was observed
10 | CC[C@H](C)[C@H](NC(=O)[C@H](CS)NC(=O)[C@H](CCC(=O)O)NC(=O)CNC(=O)[C@H](CS)NC(=O)[C@H](CO)NC(=O)[C@H](CCCCN)NC(=O)[C@H](C)NC(=O)[C@H](CC(N)=O)NC(=O)[C@H](C)NC(=O)[C@@H](N)CCCCN)C(=O)O [KA11] (H-KANAKSCGECI-OH) | 270 | 43.7 ± 12.8 | Toxicity to UMR106 cells (UMR106 cells; [4]): no toxicity was observed
11 | QETIRVTKPC [QE10, midkine-derived peptide … from β-sheet of C-terminal half] |  | 99.5 ± 10.6 | 
